Assays:
[1] = tested on: human panelists, savory taste; experiment: Savory taste test with trained human panel (difference from reference); type: in vivo
Method: General Panelist Selection: Basic screening of sensory taste testers: Potential panelists were tested for their abilities to rank and rate intensities of solutions representing the five basic tastes. Panelists ranked and rated intensity of five different concentrations of each of the five following compounds: sucrose (sweet), sodium chloride (salty), citric acid (sour), caffeine (bitter), and monosodium glutamate (savory). In order to be selected for participation in testing, panelists needed to correctly rank and rate samples for intensity, with a reasonable number of errors.
Preliminary Taste Tests: The panelists selected in the above procedure were deemed qualified for performing Preliminary Taste Testing procedures. The preliminary taste tests are used to evaluate new compounds for intensity of basic tastes and off-tastes. A small group of panelists (n=5) taste approximately 5 concentrations of the compound (range typically between 1-100 μM, in half-log cycles, e.g., 1, 3, 10, 30, and 100 μM) in water and in a solution of 12 mM MSG to evaluate enhancement. Panelists rate the five basic tastes (sweet, salty, sour, bitter, and savory) as well as off-tastes (such as chemical, metallic, sulfur) on a labeled magnitude scale. Samples are served in 10 mL portions at room temperature. The purpose of the test is to determine the highest concentration at which there is no objectionable off-taste, and determine if obvious savory taste or enhancement of savory taste exists at any of the concentrations tested.
Trained Panelist Selection: A trained expert panel was used to further evaluate compounds that had been tested with the preliminary taste test.
Panelists for the trained panel were selected from the larger group of qualifying taste panelists. Panelists were further trained on savory taste by ranking and rating experiments using MSG and IMP combinations. Panelists completed a series of ranking, rating, and difference from reference tests with savory solutions. In ranking and rating experiments, panelists evaluated easy MSG concentrations (0, 6, 18, 36 mM) and more difficult MSG concentrations (3, 6, 12, 18 mM MSG) in water.
Compound testing with Trained Panel: Compounds tested by the trained panel were evaluated in difference from reference experiments. […] Test samples were solutions with varying amounts of MSG, IMP, and the compound. Typically, each session compares the reference sample to numerous test samples. […] Compounds were tested against the reference in samples with and without 12 mM MSG. All samples were presented in 10 ml volumes at room temperature. Two sessions were completed for each compound tested to evaluate panel reproducibility.

[2] = tested on: human subjects, savory taste; experiment: Human taste test of low sodium tomato juice; type: in vivo; conditions: 3 μM cpd; 400 mg Na/8 oz tomato juice
Method: Human taste tests were conducted in order to evaluate the ability of the compounds of the invention to enhance the savory flavor of low sodium tomato juice (which naturally comprises some monosodium glutamate).
The final tomato juice samples for taste testing were prepared so as to comprise 90% (by volume) pre-made low sodium tomato juice stock (pH 4.2, 80˜100 mg Na/8 oz, 16 mM of naturally occurring MSG), 5% (by volume) of stock solutions formulated to produce selected final levels of sodium of final juice, and 5% (by volume) of a stock solution of the compound of the invention. Selected oxalamide compounds of the invention were dissolved in LSB (low sodium phosphate buffer), to provide a stock solution at 20 times the desired final concentration in the final tomato juice. The desired final sodium concentration of the final tomato juice was most experiments 73.6 mM (400 mg sodium in 8 oz. of juice), therefore a stock solution of NaCl was made at 1.48 M NaCl. The pH for the stock solutions was adjusted to 4.2 using a 1 M citric acid solution, and the stock solutions were sonicated to ensure the additive compounds were completely dissolved. […]
Scores were averaged across panelists and sessions, and evaluated using a 2-way ANOVA (factors: panelists and samples) and Duncan's multiple comparison test (alpha=0.05) to determine significant differences in intensity ratings.

melting point: 133.5 to 134 °C
Structure (SMILES): COc1cc(C)ccc1CNC(=O)C(=O)NCCc1ccc(C)cn1 [Example 30, N^1-(2-methoxy-4-methylbenzyl)-N^2-(2-(5-methylpyridin-2-yl)ethyl)oxalamide]
Taste Data: cpd concentration as strong as 12 mM MSG ([1]; compound alone, without MSG): 0.3 μM cpd as strong as
Taste Data: cpd concentration at which 12 mM MSG + cpd is as strong as 12 mM MSG + 100 μM IMP ([1]; with 12 mM MSG, reference 12 mM MSG + 100 μM IMP): 12 mM MSG + 0.3 μM cpd as
Enhancement of the savory taste of 16 mM glutamate (naturally existing) in low sodium tomato juice [2]: by 1.8 to 1.9-fold

Source: patent US8318947B2, “Comestible compositions comprising high potency savory flavorants, and processes for producing them” (Senomyx, Inc., priority 2006, dated 2012)
